Experimental data from ChEMBL document CHEMBL1124736, “Novel quinuclidine-based ligands for the muscarinic cholinergic receptor” (J Med Chem, 1990).

Experiments:
[1] = molecular target: T1, Muscarinic acetylcholine receptor (Rattus norvegicus) (UniProt P08482+P08483+P08485+P08911+P10980)
Description: In vitro displacement of [3H]OXO-M from muscarinic acetylcholine receptor in rat cortical homogenates

[2] = Log of the ratio of Kapp([3H]-NMS)/Kapp([3H]-OXO-M) was determined
[3] = molecular target: T1, Muscarinic acetylcholine receptor (Rattus norvegicus); remark: listed apart in the source
Description: In vitro for its ability to displace [3H]NMS from muscarinic acetylcholine receptor in rat cortical homogenates

[4] = molecular target: T1, Muscarinic acetylcholine receptor (Rattus norvegicus); test: Compound was tested in vitro for its ability to displace [3H]OXO-M from Muscarinic acetylcholine receptor in rat cortical homogenates

Compound | K app [1] | Log ratio [2] | K app [3] | K app [4]
Nc1noc(C2CN3CCC2CC3)n1 (configuration not stated) | 0.0005 µM | 3.08 |  | 
Cc1noc(C2=CCCN(C)C2)n1 | 0.0046 µM |  | 1.8 µM | 
NC(=O)c1noc(C2CN3CCC2CC3)n1 (configuration not stated) | 1.7 µM |  | 39 µM | 
Cc1coc(C2CN3CCC2CC3)n1 (configuration not stated) | 0.027 µM | 1.72 | 1.4 µM | 
Brc1noc(C2CN3CCC2CC3)n1 (configuration not stated) | 0.0011 µM |  | 0.19 µM | 
CNc1noc(C2CN3CCC2CC3)n1 (configuration not stated) | 0.053 µM |  | 2 µM | 
N#Cc1noc(C2CN3CCC2CC3)n1 (configuration not stated) | 0.043 µM |  | 2.6 µM | 
Cc1coc(C2CN3CCC2CC3)c1 (configuration not stated) | 0.057 µM | 1.18 | 1.4 µM | 
CCc1noc(C2CN3CCC2CC3)n1 (configuration not stated) | 0.0056 µM |  | 0.096 µM | 
Cc1cnc(C2CN3CCC2CC3)o1 (configuration not stated) | 0.04 µM |  | 0.73 µM | 
c1ccc(Cc2noc(C3CN4CCC3CC4)n2)cc1 (configuration not stated) | 0.021 µM |  | 0.07 µM | 
COc1noc(C2CN3CCC2CC3)n1 (configuration not stated) | 0.014 µM |  | 0.52 µM | 
C[N+]12CCC(CC1)C(c1nc(N)no1)C2 (configuration not stated) | 0.079 µM |  | 6.6 µM | 
CN(C)c1noc(C2CN3CCC2CC3)n1 (configuration not stated) | 0.021 µM |  | 0.2 µM | 
COC(=O)C1CN2CCC1CC2 (configuration not stated) | 0.023 µM |  | 8.6 µM | 
Cc1cc(C2CN3CCC2CC3)on1 (configuration not stated) | 0.036 µM | 1.59 | 1.4 µM | 
CC(=O)Nc1noc(C2CN3CCC2CC3)n1 (configuration not stated) | 0.12 µM |  | 23 µM | 
Clc1noc(C2CN3CCC2CC3)n1 (configuration not stated) | 0.00048 µM | 2.6 | 0.19 µM | 
Cc1nnc(C2CN3CCC2CC3)o1 (configuration not stated) | 0.06 µM | 2.11 | 7.5 µM | 
Cc1nc(C2CN3CCC2CC3)no1 (configuration not stated) | 0.054 µM | 1.73 | 2.9 µM | 
c1coc(C2CN3CCC2CC3)n1 (configuration not stated) | 0.038 µM |  | 6.7 µM | 
Cc1noc(C2=CN3CCC2CC3)n1 | 0.4 µM |  | 15 µM | 
Cc1noc(C2CN3CCC2CC3)n1 (configuration not stated) |  | 2.69 |  | 0.0009 µM
OC(c1ccccc1)(c1ccccc1)c1noc(C2CN3CCC2CC3)n1 (configuration not stated) | 6.7e-05 µM |  | 0.00012 µM | 
Cc1ccc(C2CN3CCC2CC3)o1 (configuration not stated) | 0.013 µM | 1.28 | 0.25 µM | 
